Tested on: T-47D spheroids with HUVEC/MSC, viability
Assay: Anticancer human tumor T-47D cell line growth inhibition [PI3K];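 further: spheroids exposed to agents for seven days before reading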;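 on viability, T/C: percent of DMSO vehicle control luminescence so 100% = untreated growth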
Conditions: for IC50: curve of first compound; for viability, T/C: stronger effect = lower value; active means viability on the fitted dose curve at most 10% of control; inactive means the rest
In short: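 Tumor cells grown as multi-cell spheroids with HUVEC endothelial cells and MSC fibroblast-like stroma were treated with targeted agents combined with inavolisib, alpelisib, duvelisib or copanlisib. Doses fell in half-log steps from near clinical Cmax, else from 10 microM. Viability was measured.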

[1] = second compound 0.0316 µM, first compound 0.0316 µM
[2] = second compound 0.0316 µM, first compound 0.1 µM
[3] = second compound 0.0316 µM, first compound 0.316 µM
[4] = second compound 0.0316 µM, first compound 1 µM
[5] = second compound 0.0316 µM, first compound 3.16 µM
[6] = second compound 0.0316 µM, first compound 10 µM
[7] = second compound 0.1 µM, first compound 0.0316 µM
[8] = second compound 0.1 µM, first compound 0.1 µM
[9] = second compound 0.1 µM, first compound 0.316 µM
[10] = second compound 0.1 µM, first compound 1 µM
[11] = second compound 0.1 µM, first compound 3.16 µM
[12] = second compound 0.1 µM, first compound 10 µM
[13] = second compound 0.316 µM, first compound 0.0316 µM
[14] = second compound 0.316 µM, first compound 0.1 µM
[15] = second compound 0.316 µM, first compound 0.316 µM
[16] = second compound 0.316 µM, first compound 1 µM
[17] = second compound 0.316 µM, first compound 3.16 µM
[18] = second compound 0.316 µM, first compound 10 µM
[19] = second compound 1 µM, first compound 0.0316 µM
[20] = second compound 1 µM, first compound 0.1 µM
[21] = second compound 1 µM, first compound 0.316 µM
[22] = second compound 1 µM, first compound 1 µM
[23] = second compound 1 µM, first compound 3.16 µM
[24] = second compound 1 µM, first compound 10 µM
[25] = second compound 3.16 µM, first compound 0.0316 µM
[26] = second compound 3.16 µM, first compound 0.1 µM
[27] = second compound 3.16 µM, first compound 0.316 µM
[28] = second compound 3.16 µM, first compound 1 µM
[29] = second compound 3.16 µM, first compound 3.16 µM
[30] = second compound 3.16 µM, first compound 10 µM
[31] = second compound 10 µM, first compound 0.0316 µM
[32] = second compound 10 µM, first compound 0.1 µM
[33] = second compound 10 µM, first compound 0.316 µM
[34] = second compound 10 µM, first compound 1 µM
[35] = second compound 10 µM, first compound 3.16 µM
[36] = second compound 10 µM, first compound 10 µM

Cn1cnc2c(F)c(Nc3ccc(Br)cc3Cl)c(C(=O)NOCCO)cc21 + CC(Nc1ncnc2nc[nH]c12)c1cc2cccc(Cl)c2c(=O)n1-c1ccccc1
> 3 µM: IC50 (second compound 0.0316 µM) | IC50 (second compound 0.1 µM) | IC50 (second compound 0.316 µM) | IC50 (second compound 1 µM) | IC50 (second compound 3.16 µM) | IC50 (second compound 10 µM)
inactive: viability, T/C (second compound 0.0316 µM, first compound 0.00949 µM) 104% | viability, T/C (second compound 0.0316 µM, first compound 0.03 µM) 93.4% | viability, T/C (second compound 0.0316 µM, first compound 0.0949 µM) 100% | viability, T/C (second compound 0.0316 µM, first compound 0.3 µM) 81% | viability, T/C (second compound 0.0316 µM, first compound 0.949 µM) 84.2% | viability, T/C (second compound 0.0316 µM, first compound 3 µM) 77.1% | viability, T/C (second compound 0.1 µM, first compound 0.00949 µM) 94.6% | viability, T/C (second compound 0.1 µM, first compound 0.03 µM) 86% | viability, T/C (second compound 0.1 µM, first compound 0.0949 µM) 87.8% | viability, T/C (second compound 0.1 µM, first compound 0.3 µM) 83.8% | viability, T/C (second compound 0.1 µM, first compound 0.949 µM) 93.2% | viability, T/C (second compound 0.1 µM, first compound 3 µM) 102% | viability, T/C (second compound 0.316 µM, first compound 0.00949 µM) 73.4% | viability, T/C (second compound 0.316 µM, first compound 0.03 µM) 83.2% | viability, T/C (second compound 0.316 µM, first compound 0.0949 µM) 79.7% | viability, T/C (second compound 0.316 µM, first compound 0.3 µM) 83.9% | viability, T/C (second compound 0.316 µM, first compound 0.949 µM) 82% | viability, T/C (second compound 0.316 µM, first compound 3 µM) 75.2% | viability, T/C (second compound 1 µM, first compound 0.00949 µM) 96.9% | viability, T/C (second compound 1 µM, first compound 0.03 µM) 104% | viability, T/C (second compound 1 µM, first compound 0.0949 µM) 86.1% | viability, T/C (second compound 1 µM, first compound 0.3 µM) 94.8% | viability, T/C (second compound 1 µM, first compound 0.949 µM) 75% | viability, T/C (second compound 1 µM, first compound 3 µM) 79.3% | viability, T/C (second compound 3.16 µM, first compound 0.00949 µM) 79.3% | viability, T/C (second compound 3.16 µM, first compound 0.03 µM) 94.9% | viability, T/C (second compound 3.16 µM, first compound 0.0949 µM) 85.2% | viability, T/C (second compound 3.16 µM, first compound 0.3 µM) 95.5% | viability, T/C (second compound 3.16 µM, first compound 0.949 µM) 80.2% | viability, T/C (second compound 3.16 µM, first compound 3 µM) 82.5% | viability, T/C (second compound 10 µM, first compound 0.00949 µM) 78.3% | viability, T/C (second compound 10 µM, first compound 0.03 µM) 82.2% | viability, T/C (second compound 10 µM, first compound 0.0949 µM) 71.3% | viability, T/C (second compound 10 µM, first compound 0.3 µM) 69.3% | viability, T/C (second compound 10 µM, first compound 0.949 µM) 80.9% | viability, T/C (second compound 10 µM, first compound 3 µM) 79.9%

CNC(=O)c1ccc(N2C(=S)N(c3ccc(C#N)c(C(F)(F)F)c3)C(=O)C2(C)C)cc1F + CC(Nc1ncnc2nc[nH]c12)c1cc2cccc(Cl)c2c(=O)n1-c1ccccc1
inactive: viability, T/C [1] 117% | viability, T/C [2] 108% | viability, T/C [3] 96.2% | viability, T/C [4] 85.9% | viability, T/C [5] 97.1% | viability, T/C [6] 79.6% | viability, T/C [7] 101% | viability, T/C [8] 85.4% | viability, T/C [9] 114% | viability, T/C [10] 99.9% | viability, T/C [11] 95.4% | viability, T/C [12] 80.2% | viability, T/C [13] 89% | viability, T/C [14] 88% | viability, T/C [15] 84.2% | viability, T/C [16] 80.7% | viability, T/C [17] 92.3% | viability, T/C [18] 86.5% | viability, T/C [19] 93.7% | viability, T/C [20] 87.5% | viability, T/C [21] 78.1% | viability, T/C [22] 86% | viability, T/C [23] 91.7% | viability, T/C [24] 76.9% | viability, T/C [25] 88.5% | viability, T/C [26] 76.4% | viability, T/C [27] 86% | viability, T/C [28] 85.5% | viability, T/C [29] 95.2% | viability, T/C [30] 94% | viability, T/C [31] 96.8% | viability, T/C [32] 90.9% | viability, T/C [33] 84.3% | viability, T/C [34] 84.1% | viability, T/C [35] 98.3% | viability, T/C [36] 88.7%
> 10 µM: IC50 (second compound 0.0316 µM) | IC50 (second compound 0.1 µM) | IC50 (second compound 0.316 µM) | IC50 (second compound 1 µM) | IC50 (second compound 3.16 µM) | IC50 (second compound 10 µM)

CC(C)NCC(C(=O)N1CCN(c2ncnc3c2C(C)CC3O)CC1)c1ccc(Cl)cc1 (stereo unspecified) + Cc1nc(NC(=O)N2CCCC2C(N)=O)sc1-c1ccnc(C(C)(C)C(F)(F)F)c1
0.585 µM: IC50 (second compound 3.16 µM)
< 0.0316 µM: IC50 (second compound 10 µM)
2.12 µM: IC50 (second compound 1 µM)
> 10 µM: IC50 (second compound 0.0316 µM) | IC50 (second compound 0.316 µM)
inactive: viability, T/C [1] 85.2% | viability, T/C [2] 79.7% | viability, T/C [3] 84.6% | viability, T/C [4] 61.1% | viability, T/C [5] 58.1% | viability, T/C [6] 55.3% | viability, T/C [7] 93.5% | viability, T/C [8] 86.4% | viability, T/C [9] 81.1% | viability, T/C [10] 62.6% | viability, T/C [11] 58.1% | viability, T/C [12] 47.7% | viability, T/C [13] 88.7% | viability, T/C [14] 87.8% | viability, T/C [15] 73.1% | viability, T/C [16] 66% | viability, T/C [17] 49.8% | viability, T/C [18] 55.5% | viability, T/C [19] 81.9% | viability, T/C [20] 82.5% | viability, T/C [21] 79.1% | viability, T/C [22] 62.7% | viability, T/C [23] 43.1% | viability, T/C [24] 40.3% | viability, T/C [25] 57.5% | viability, T/C [26] 57.5% | viability, T/C [27] 56.7% | viability, T/C [28] 44.1% | viability, T/C [29] 37% | viability, T/C [30] 37.2% | viability, T/C [31] 37.4% | viability, T/C [32] 32.9% | viability, T/C [33] 34.6% | viability, T/C [34] 27% | viability, T/C [35] 22.1% | viability, T/C [36] 28.6%
7.98 µM: IC50 (second compound 0.1 µM)

Reference: PubChem BioAssay AID1963959 (Molecular Pharmacology Branch, DTP, NCI, 2024)
